# Experimental data: patent US20070134670A1, “Methods for prediction and prognosis of cancer, and monitoring cancer therapy” (BAYER PHARMACEUTICALS CORPORATION, priority 2003, published 2007)
# System: stanniocalcin expression in HMVEC cells
# Assay: In vitro endothelial cell gene expression profiling (Affymetrix / TaqMan), HMVEC
# Assay type: cell-based, human
# Conditions: HMVECs; VEGF 10 ng/ml with heparin, 2 hours (FIG. 2A)
# Excerpt: Pooled human microvascular endothelial cells (HMVECs) or human umbilical vein endothelial cells (HUVECs) were purchased as 2 T75 flasks (Clonetics, Cambrex Corporation, East Rutherford, N.J.). Cells were expanded in fill Clonetics growth media (EGF+5% FCS) on 2% gelatin coated flasks until sufficient numbers were obtained to perform the experiment (4 flasks each at less than 6 passages). Prior to the treatments, cells were washed 2× in PBS and starved overnight in basal media (EBM+0.2% endotoxin free BSA). The next day, media was removed and replaced with 25 ml of EBM+BSA. VEGFR2 inhibitor (drug) stock was made in DMSO and added to a final concentration of 100 nm in 0.1% DMSO. Heparin was used at 1.5 U/ml final concentration. VEGF final concentration was 10 ng/ml. Drug/DMSO was added for 30 minutes prior to adding VEGF/Heparin for 2 hours. […] RNA was subsequently isolated via Qiagen midi spin kits and quantitated by OD260/280 and gel visualization and/or Agilent bioanalyzer.
# Samples were organically extracted and ethanol precipitated. […] The resulting cRNA was put through RNeasy clean-up protocol, and then quantified using UV spectrophotometry. […]
# A master mix of the primers at 50 μM each was prepared. The samples were analyzed by standard PCR conditions on an ABI PRISM 7700 Sequence Detector using SYBR green probes. β-actin was used as controls for loading normalization.
substance,measurement,value
VEGF,human stanniocalcin-1 expression induced after treatment with VEGF,~20 fold
